Assay results published in the NIST ThermoML archive (doi:10.1016/j.jct.2016.05.001).

Settings: 101.33 kPa, Crystal; for molar entropy: Small (less than 1 g) adiabatic calorimetry; for mass density: X-ray diffraction

Nc1nc2ncc(CNc3ccc(C(=O)N[C@@H](CCC(=O)O)C(=O)O)cc3)nc2c(=O)[nH]1.O.O [folic acid dihydrate]
Settings	mass density [kg/m3]	molar entropy [J/K/mol]
4 K	–	0.0255
5 K	–	0.0623
6 K	–	0.1291
7 K	–	0.2371
8 K	–	0.3983
9 K	–	0.6346
10 K	–	0.962
15 K	–	3.956
20 K	–	8.733
25 K	–	15.36
30 K	–	23.55
35 K	–	32.93
40 K	–	43.15
45 K	–	53.9
50 K	–	65
60 K	–	87.81
70 K	–	111.2
80 K	–	134.6
90 K	–	157.6
100 K	–	180.2
110 K	–	202.6
120 K	–	224.6
130 K	–	246.2
140 K	–	267.7
150 K	1556	288.9
160 K	–	309.9
170 K	–	330.6
175 K	1554	–
180 K	–	351.2
190 K	–	371.6
200 K	1552	391.9
210 K	–	412
220 K	–	432
225 K	1550	–
230 K	–	451.9
240 K	–	471.7
250 K	1549	491.4
260 K	–	511
270 K	–	530.5
273.15 K	–	536.6
275 K	1546	–
280 K	–	549.9
290 K	–	569.3
298.15 K	–	585
300 K	1543	588.6
310 K	–	607.8
320 K	–	627
325 K	1542	–
330 K	–	646.1
333 K	–	651.9
350 K	1540	–
375 K	1537	–
